Like-named read-outs stand apart in the source and are kept apart here. Ends that are not written are not given here.
What was measured:
apelin receptor [1] = target: T1, apelin receptor (Homo sapiens, UniProt P35414); test: Inhibition of forskolin-stimulated cAMP accumulation (DiscoverX); assay type: cell-based; conditions: 15 μmol/L forskolin, cells expressing human apelin receptor, mean ± SEM, n = replicates/experiments, read-out: pD2, inhibition of forskolin-stimulated cAMP (converted)
T1 sequence (P35414 1-380): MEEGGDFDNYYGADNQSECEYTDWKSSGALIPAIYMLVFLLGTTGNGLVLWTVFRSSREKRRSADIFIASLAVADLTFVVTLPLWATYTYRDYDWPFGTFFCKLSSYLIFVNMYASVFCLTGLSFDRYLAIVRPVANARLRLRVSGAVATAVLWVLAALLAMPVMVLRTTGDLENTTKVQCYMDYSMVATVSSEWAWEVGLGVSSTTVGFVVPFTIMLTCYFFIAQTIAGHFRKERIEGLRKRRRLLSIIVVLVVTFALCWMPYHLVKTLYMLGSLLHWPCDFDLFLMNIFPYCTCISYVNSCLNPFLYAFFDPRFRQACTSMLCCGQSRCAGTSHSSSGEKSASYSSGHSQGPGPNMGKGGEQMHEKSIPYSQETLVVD
Description: (§1) Inhibition of cAMP accumulation, β-arrestin recruitment and receptor internalization by apelin isoforms, modified and truncated apelin peptides were studied using cells expressing the human apelin receptor (DiscoverX, CA, USA) as per the manufacturer's instructions. In all assays the resulting chemiluminescent signal was measured as relative light units (RLU) using a LumiLITE™ Microplate Reader (DiscoveRx, Fremont, CA). […] Agonist responses were expressed as a % of the forskolin response. […] Data were analyzed using a 4-parameter logistic equation using GraphPad Prism 6 to determine values of potency, pD2 (−log10 EC50, where EC50 is the concentration producing half maximal response) and maximum response (EMAX). n-Values are given as number of replicates/number of experiments.

apelin receptor [2] = target: T1, apelin receptor; test: β-arrestin recruitment assay (DiscoverX); assay type: cell-based; conditions: cells expressing human apelin receptor, mean ± SEM, n = replicates/experiments, read-out: pD2, β-arrestin recruitment (converted)
Description: as §1

apelin receptor [3] = target: T1, apelin receptor; test: Receptor internalization assay (DiscoverX); assay type: cell-based
Description: as §1

apelin receptor [4] = target: T1, apelin receptor; test: β-arrestin assay without and with pre-incubation with rhACE2; assay type: cell-based
Description: as §1

[5] = target: T2, vascular smooth muscle apelin receptor (Homo sapiens, UniProt P35414); test: Contraction of endothelium-denuded human saphenous vein; conditions: n = 9; for Emax: % of terminal response to KCl (100 mmol/L)
T2 construct: from tissue; host or cells: endothelium-denuded human saphenous vein
T2 sequence (P35414 1-380): T1 sequence (P35414 1-380)
Description: (§2) Vascular smooth muscle apelin receptor-mediated contraction was exploited in a bioassay to compare the in vitro potency of apelin peptides. […] Agonist responses were expressed as a % of a terminal response to KCl (100 mmol/L). […] Data were expressed as % of the terminal response to CaCl2. Data from vascular and cardiac experiments were analyzed using a 4-prameter logistic curve (GraphPad Prism 6) to determine values of pD2 and EMAX.

[6] = human, in vivo
Description: Studies were performed in healthy volunteers (n = 12) in the University of Cambridge Vascular Research Unit, Addenbrooke's Hospital, Cambridge, UK. This study was carried out in accordance with the recommendations of the National Research Ethics Service Committee East of England-Cambridge Central with written informed consent from all subjects. All subjects gave written informed consent in accordance with the Declaration of Helsinki. The protocol was approved by the National Research Ethics Service Committee East of England-Cambridge Central (REC 11/EE/0305).
Exclusion criteria were ischemic heart disease, respiratory, renal or neurological disease, diabetes mellitus, hypertension, BMI > 30, BMI <18; smoker; pregnant; use of vasoactive medication or NSAIDS/aspirin within 48 h of study; current involvement in other research studies. An Omron HEM705CP oscillimetric sphygmomanometer was used to measure blood pressure and heart rate at baseline and then every 6 min in the contralateral arm. Periodically, a cuff around the upper arm was inflated for ~8 s to 40 mmHg then deflated for 4 s to interrupt venous return and during a 3 min measurement hand circulation was excluded by inflation of wrist cuffs to 200 mmHg. Changes in forearm volume were measured by mercury-in-silastic strain gauge with FBF subsequently expressed as ml/100 ml forearm volume per min. […]

apelin receptor [7] = target: T1, apelin receptor; test: Competition binding with [Glp65,Nle75,Tyr77][125I]apelin-13 in human left ventricle homogenate; parameters: from tissue; host or cells: human left ventricle homogenate
Description: Assays were performed in human heart as previously described (Brame et al., [2015]). […] Equilibrium was broken by centrifugation (20,000 g for 10 min, 4°C) and pellets washed with Tris-HCl buffer (50 mmol/L, pH 7.4, 4°C), re-centrifuged and pellets counted for detection of bound radioactivity. Competition binding data were analyzed using GraphPad Prism 6 (GraphPad Software, Inc. La Jolla, CA, USA) to obtain values of pKi (the negative log10 of the dissociation constant derived from the IC50 for the competing ligands, the radioligand concentration and radioligand affinity by the Cheng and Prusoff equation). Experiments were performed in triplicate.
Measurements are mean ± standard error of the mean (SEM). […] Cell assay pD2 values were compared by one-way ANOVA followed by Tukey's multiple comparison test.

recombinant human ACE2 = target: T3, recombinant human ACE2 (Homo sapiens, UniProt Q9BYF1); test: Incubation with rhACE2, Maldi-TOF mass spectrometry; assay type: in vitro ADME; conditions: 5 nmol peptide, 5 pmol rhACE2, MES buffer pH 6.5, 2 h, 37°C, Maldi-TOF read-out
T3 construct: purchased GSK, Ware, UK
Description: The reaction mixture was analyzed by Maldi-TOF mass spectrometry after samples were desalted using Millipore μC18ZipTip (MA, USA), washed with 5% acetic acid and eluted with CHCA matrix (in 50% aqueous acetonitrile containing 0.1% trifluoroacetic acid) to a stainless steel sample slide. Samples were air dried and analyzed using a Waters Maldi MicroMX time-of-flight mass spectrometer (MA, USA). Calibration was external using polyethylene glycol. The 10 Hz-laser power was just above threshold. The spectra were the sum of 1,000 shots collected from a spiral track of the sample area. Data were processed using Waters MassLynx software (MA, USA).

[8] = cited from earlier work
Source text: Apelins are modulators of vascular tone and cardiac contractility in vitro and in vivo (Japp et al., [2008], [2010]; Maguire et al., [2009]; Barnes et al., [2013]; Brame et al., [2015]).

[9] = system: mouse paced right ventricle; test: Inotropic action in mouse paced right ventricle; conditions: mouse paced RV, n = 6 (isoprenaline n = 4)
Description: as §2

rhACE2 = rhACE2 enzyme (5 pmol, GSK) in buffer (pH 6.5) containing MES (500 mmol/L), NaCl (300 mmol/L) and ZnCl2 (10 μmol/L); conditions: human, 37°C, up to 2 h
rat in vivo = conditions: cited from earlier work

T3 sequence (Q9BYF1 18-740 limits assumed): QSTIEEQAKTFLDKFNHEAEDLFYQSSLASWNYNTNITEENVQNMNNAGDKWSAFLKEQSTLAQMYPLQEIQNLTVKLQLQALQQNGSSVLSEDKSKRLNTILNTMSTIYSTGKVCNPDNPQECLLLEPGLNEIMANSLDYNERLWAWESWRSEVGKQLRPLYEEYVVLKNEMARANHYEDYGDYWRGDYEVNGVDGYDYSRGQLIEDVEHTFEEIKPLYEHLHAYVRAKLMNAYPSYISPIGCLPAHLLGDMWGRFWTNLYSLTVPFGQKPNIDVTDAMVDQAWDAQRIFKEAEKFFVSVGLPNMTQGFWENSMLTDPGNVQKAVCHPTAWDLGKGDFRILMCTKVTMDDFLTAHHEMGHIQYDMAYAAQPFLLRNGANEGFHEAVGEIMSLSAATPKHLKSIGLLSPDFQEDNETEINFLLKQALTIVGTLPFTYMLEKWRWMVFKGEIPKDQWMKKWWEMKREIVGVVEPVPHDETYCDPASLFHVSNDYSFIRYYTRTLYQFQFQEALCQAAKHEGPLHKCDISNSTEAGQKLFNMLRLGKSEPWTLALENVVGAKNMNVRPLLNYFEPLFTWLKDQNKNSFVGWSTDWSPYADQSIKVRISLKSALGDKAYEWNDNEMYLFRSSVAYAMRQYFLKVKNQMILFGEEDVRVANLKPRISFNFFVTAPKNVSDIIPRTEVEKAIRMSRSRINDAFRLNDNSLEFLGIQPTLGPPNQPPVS

## CSCC[C@H](NC(=O)[C@@H]1CCCN1C(=O)CNC(=O)[C@H](CCCCN)NC(=O)[C@H](Cc1c[nH]cn1)NC(=O)[C@H](CO)NC(=O)[C@H](CC(C)C)NC(=O)[C@H](CCCNC(=N)N)NC(=O)[C@@H]1CCCN1C(=O)[C@H](CCCNC(=N)N)NC(=O)[C@@H]1CCC(=O)N1)C(=O)N1CCC[C@H]1C(=O)O [[Pyr^1]apelin-13(1–12)]
Apelin receptor [1]
  EC50: 0.501 nM
Apelin receptor [2]
  EC50: 14.5 nM
Apelin receptor [3]
  Emax: 97 ± 2%
Apelin receptor [3]; mean ± SEM, SEM, read-out: pD2, receptor internalization (converted)
  EC50: 6.46 nM
Apelin receptor [4]; without or with pre-incubation with rhACE2
  EMAX (% [Pyr^1]apelin-13): 98 ± 5 % [Pyr^1]apelin-13
Apelin receptor [4]; without or with pre-incubation with rhACE2 (2 h, 37°C), mean ± SEM, SEM, read-out: Potency (pD2) (converted)
  EC50: 53.7 nM
[5]
  Emax: 24 ± 6%
[5]; endothelium-denuded human saphenous vein, mean ± SEM, SEM, read-out: pD2, contraction of saphenous vein (converted)
  EC50: 0.234 nM
[6]
  effect on heart rate or blood pressure: No significant effects
Apelin receptor [7]; 0.1 nmol/L radioligand, 90 min, 22°C, pH 7.4, Cheng-Prusoff, mean ± SEM, n = 3, SEM
  Ki: 9.12 nM

## CSCC[C@H](NC(=O)[C@@H]1CCCN1C(=O)CNC(=O)[C@H](CCCCN)NC(=O)[C@H](Cc1cnc[nH]1)NC(=O)[C@H](CO)NC(=O)[C@H](CC(C)C)NC(=O)[C@H](CCCNC(=N)N)NC(=O)[C@@H]1CCCN1C(=O)[C@H](CCCNC(=N)N)NC(=O)[C@@H]1CCC(=O)N1)C(=O)N1CCC[C@H]1C(=O)N[C@@H](Cc1ccccc1)C(=O)O [[Pyr^1]apelin-13]
Recombinant human ACE2
  result of incubation with rhACE2: de novo generation of [Pyr^1]apelin-13(1–12), with a weak signal representing the remaining parent peptide
[8]; humans, ref Japp et al., 2008
  half-life: less than 8 min
[8]; rat, ref Brame et al., 2015
  half-life: less than 3 min

## CSCC[C@H](NC(=O)[C@@H]1CCCN1C(=O)CNC(=O)[C@H](CCCCN)NC(=O)[C@H](Cc1c[nH]cn1)NC(=O)[C@H](CO)NC(=O)[C@H](CC(C)C)NC(=O)[C@H](CCCNC(=N)N)NC(=O)[C@@H]1CCCN1C(=O)[C@H](CCCNC(=N)N)NC(=O)[C@@H](N)CCC(N)=O)C(=O)N1CCC[C@H]1C(=O)N[C@@H](C)C(=O)O [apelin-13(F13A), reference compound]
[5]
  Emax: 23 ± 4%

## CC(C)NCC(O)c1ccc(O)c(O)c1 (stereo not shown) [isoprenaline]
[9]; mean ± SEM, SEM, read-out: pD2, increase in force of contraction (converted)
  EC50: 13.2 nM
[9]
  EMAX, increase in force of contraction: 78 ± 17 % CaCl2

## RPRLSHKGPM [apelin-13(R10M)]
Apelin receptor [1]
  EC50: 2 nM
Apelin receptor [2]
  EC50: 5.5 nM
Apelin receptor [7]; single concentration 1 μM peptide
  % of specific binding competed for: 100%

## pGlu-Arg-Pro-Arg-Leu-Ser-His-Lys-Gly-Pro-Met-Pro
rhACE2
  not cleaved: did not produce shorter apelin fragments (2 h)

## pGlu-Arg-Pro-Arg-Leu-Ser-His-Lys-Gly-Pro-Met-Pro-Phe
Rat in vivo
  cleaved bond: Pro12-Phe13, minor
rhACE2
  cleaved bond: Pro12-Phe13, 2 h

Source: paper PMC5329011 (Frontiers in Neuroscience, 2017)
